Test results from article PMC7017082, “Tivantinib, A c-Met Inhibitor in Clinical Trials, Is Susceptible to ABCG2-Mediated Drug Resistance” (Cancers, 2020).

Target: T1, ABCG2 (ATP-binding cassette super-family G member 2, BCRP) (Homo sapiens, UniProt Q9UNQ0)
T1 construct: ABCG2 in insect cell membrane vesicles
T1 sequence (Q9UNQ0 1-655): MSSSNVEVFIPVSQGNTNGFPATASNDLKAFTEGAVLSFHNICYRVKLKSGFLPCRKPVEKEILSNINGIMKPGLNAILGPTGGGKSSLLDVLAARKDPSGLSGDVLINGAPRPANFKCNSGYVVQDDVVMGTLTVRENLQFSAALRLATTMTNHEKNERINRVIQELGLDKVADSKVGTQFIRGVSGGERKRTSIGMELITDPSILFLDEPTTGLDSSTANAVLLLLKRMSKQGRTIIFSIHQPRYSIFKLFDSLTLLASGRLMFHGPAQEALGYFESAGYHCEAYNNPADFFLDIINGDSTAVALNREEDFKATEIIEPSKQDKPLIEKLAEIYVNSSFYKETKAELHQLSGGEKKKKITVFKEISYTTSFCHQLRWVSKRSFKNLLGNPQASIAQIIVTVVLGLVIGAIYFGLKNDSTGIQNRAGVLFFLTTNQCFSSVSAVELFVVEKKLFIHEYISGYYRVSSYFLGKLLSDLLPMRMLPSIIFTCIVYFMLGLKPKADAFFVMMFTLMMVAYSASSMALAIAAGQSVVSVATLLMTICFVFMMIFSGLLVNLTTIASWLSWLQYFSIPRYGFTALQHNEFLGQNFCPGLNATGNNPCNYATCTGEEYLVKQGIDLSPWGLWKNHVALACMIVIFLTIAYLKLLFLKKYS
Experiment: biochemical

EC50: 6.76 µM
SMILES: O=C1NC(=O)[C@@H](c2cn3c4c(cccc24)CCC3)[C@@H]1c1c[nH]c2ccccc12 [Tivantinib]
